Patent US7122693B2, “Acetaldehyde acetal compounds, their synthesis, and uses thereof” (Shire BioChem Inc., priority 1988, dated 2006)
Where “and” joins values, the source holds several entries; their conditions need not be identical. Identical values can stand only once. Like-named read-outs stand apart in the source and are kept apart here.

Experiments:
Format in all cases: cell-based
HIV-1 in H-9 cells [1] = test: RT activity, HIV-1 production in H-9 cells (Table 3)
HIV-1 in MT-4 cells [2] = test: Viable cell counts, cytolytic effect of HIV-1 on MT-4 cells; settings: for viability at 2 µg/mL: Human immunodeficiency virus 1, MT4, 144 h
Method: (§1) In vitro testing was conducted on several of the compounds of this invention to determine their inhibitory properties. The concentrations reported are μg/ml in the incubation media which affect the susceptibility of a continuous line of T-cells developed at the Lady Davis Institute for Medical Research (Montreal) by Dr. Mark A. Wainberg toward infection by HIV-1 following a protocol similar to that of H. Mitsuya and S. Broder, “Inhibition of the in vitro infectivity and cytopathic effect of human T-lymphotropic virus type III/lymphadenopathy-associated virus (HTLV-III/LAV) by 2′3′-dideoxynucleosides”, Proc. Natl. Acad. Sci. USA, 83, pp. 1911–15 (1986). Protection of the cell line from infection was monitored by staining with monoclonal antibodies against viral proteins in the standard manner (Table 1). In all experiments, comparisons were made with the drug AZT as the control. In order to confirm the results, the drug effects were monitored by measuring reverse transcriptase (RT) activity in the U-937 line of human monocytic cells as assayed in the usual manner with tritiated thymidine triphosphate (TTP) (Table 2). The drug effects on cell viability as measured by the well-know cytolytic effects of HIV-1 on the MT-4 cell line was evaluated in the accepted manner (Table 1).

HIV-1 in H-9 cells [3] = test: Reverse transcriptase assay, HIV-1 production in H-9 cells (Table 2); settings: 2 μg/ml
HIV-1 in MT-4 cells [4] = test: Reverse transcriptase assay in MT-4 cells; settings: 2 μg/ml
HIV-1 in MT-4 cells [5] = test: P-24 immunofluorescence in MT-4 cells (staining with monoclonal antibodies against viral proteins); settings: 2 μg/ml
Method: as §1

[6] = MT-4 cells, HIV-1, 6 days in culture, 2 μg/ml of compound, read-out: Cell Viability %
[7] = 7 days in culture (row between 14 and 21)
[8] = MT-4 cells, HIV-1, 6 days in culture, 2 μg/ml of compound

Nc1ccn(C2COC(CO)O2)c(=O)n1 (stereo not drawn) [trans-(XXXVI), trans-2-hydromethyl-4-(cytosin-1′-yl)-1,3-dioxolane]
RT activity (cpm) after 8 days (HIV-1 in H-9 cells [1]; inhibitor 10 μM): 4,608 cpm
RT activity (cpm) after 12 days (HIV-1 in H-9 cells [1]; inhibitor 10 μM): 83,462 cpm
RT activity (cpm) after 26 days (HIV-1 in H-9 cells [1]; inhibitor 10 μM): 312,478 cpm
RT activity (cpm) after 8 days (HIV-1 in H-9 cells [1]; inhibitor 50 μM): 1,319 cpm
RT activity (cpm) after 12 days (HIV-1 in H-9 cells [1]; inhibitor 50 μM): 758 cpm
RT activity (cpm) after 26 days (HIV-1 in H-9 cells [1]; inhibitor 50 μM): 1,732 cpm

O=c1ccn(C2CSC(CO)O2)c(=O)[nH]1 (stereo not drawn) [cis-XVIII, Cis-2-hydroxymethyl-5-(uracil-N-1′-yl)-1,3-oxathiolane]
viability at 2 µg/mL (HIV-1 in MT-4 cells [2]; [6]): 14%

CN(C)C=Nc1ccn(C2CSC(CO)O2)c(=O)n1 (stereo not drawn) [cis-LIII, Cis-2-hydroxymethyl-5-(N-dimethylaminomethylenecytosin-1′-yl)-1,3-oxathiolane]
viability at 2 µg/mL (HIV-1 in MT-4 cells [2]; [6]): 18%

Nc1ccn(C2CSC(CO)O2)c(=O)n1 (stereo not drawn) [cis-XI, Cis-2-hydroxymethyl-5-(cytosin-1′-yl)-1,3-oxathiolane]
RT Activity (CPM × 1000)/ml (HIV-1 in H-9 cells [3]; 5 days in culture): 3.077 (CPM × 1000)/ml
RT Activity (CPM × 1000)/ml (HIV-1 in H-9 cells [3]; [7]): 2.399 (CPM × 1000)/ml
RT Activity (CPM × 1000)/ml (HIV-1 in H-9 cells [3]; 8 days in culture): 5.853 (CPM × 1000)/ml
RT Activity (CPM × 1000)/ml (HIV-1 in H-9 cells [3]; 11 days in culture): 3.560 (CPM × 1000)/ml
RT Activity (CPM × 1000)/ml (HIV-1 in H-9 cells [3]; 14 days in culture): 2.872 (CPM × 1000)/ml
RT Activity (CPM × 1000)/ml (HIV-1 in H-9 cells [3]; 21 days in culture): 2.907 (CPM × 1000)/ml
RT Activity (CPM × 1000)/ml (HIV-1 in H-9 cells [3]; 25 days in culture): 4.020 (CPM × 1000)/ml
RT Activity (CPM × 1000)/ml (HIV-1 in H-9 cells [3]; 29 days in culture): 3.756 (CPM × 1000)/ml
RT Activity (CPM × 1000)/ml (HIV-1 in H-9 cells [3]; 33 days in culture): 3.803 (CPM × 1000)/ml
RT Activity (CPM × 1000)/ml (HIV-1 in H-9 cells [3]; 37 days in culture): 4.193 (CPM × 1000)/ml
RT Activity (CPM × 1000)/ml (HIV-1 in H-9 cells [3]; 41 days in culture): 4.515 (CPM × 1000)/ml
RT Activity (CPM × 1000)/ml (HIV-1 in H-9 cells [3]; 45 days in culture): 3.441 (CPM × 1000)/ml
RT Activity (CPM × 1000)/ml (HIV-1 in MT-4 cells [4]; 3 days in culture): 2.381 (CPM × 1000)/ml
RT Activity (CPM × 1000)/ml (HIV-1 in MT-4 cells [4]; 6 days in culture): 2.301 (CPM × 1000)/ml
% Immunofluorescent Cells (P-24) (HIV-1 in MT-4 cells [5]; 3 days in culture): 1.0%
% Immunofluorescent Cells (P-24) (HIV-1 in MT-4 cells [5]; 6 days in culture): 7.6%
Cell Viability % (HIV-1 in MT-4 cells [2]; [8]): 87.4%

O=c1[nH]cnc2c1ncn2C1CSC(CO)O1 (stereo not drawn) [cis-LVI, Cis-2-hydroxymethyl-5-(6′-hydroxypurin-N-9′-yl)-1,3-oxathiolane]
viability at 2 µg/mL (HIV-1 in MT-4 cells [2]; [6]): 11%

Nc1ccn(C2C[S+]([O-])C(CO)O2)c(=O)n1 (single isomer, unassigned) [cis-XII (b), Cis-2-hydroxymethyl-5-(cytosin-1′-yl)-3-oxo-1,3-oxathiolane]
viability at 2 µg/mL (HIV-1 in MT-4 cells [2]; [6]): 14%

Nc1ccn(C2CSC(CO)O2)c(=O)n1 (stereo not drawn) [trans-XI, trans-2-hydroxymethyl-5-(cytosin-1′-yl)-1,3-oxathiolane]
Cell Viability % (HIV-1 in MT-4 cells [2]; [8]): 24%

Cc1cn(C2CC(N=[N+]=[N-])C(CO)O2)c(=O)[nH]c1=O (centres unmarked) [AZT, 3′-azido-2′,3′-dideoxythymidine, reference compound]
RT Activity (CPM × 1000)/ml (HIV-1 in H-9 cells [3]; 5 days in culture): 3.346 (CPM × 1000)/ml
RT Activity (CPM × 1000)/ml (HIV-1 in H-9 cells [3]; [7]): 2.997 (CPM × 1000)/ml
RT Activity (CPM × 1000)/ml (HIV-1 in H-9 cells [3]; 8 days in culture): 3.414 (CPM × 1000)/ml
RT Activity (CPM × 1000)/ml (HIV-1 in H-9 cells [3]; 11 days in culture): 2.918 (CPM × 1000)/ml
RT Activity (CPM × 1000)/ml (HIV-1 in H-9 cells [3]; 14 days in culture): 8.320 (CPM × 1000)/ml
RT Activity (CPM × 1000)/ml (HIV-1 in H-9 cells [3]; 21 days in culture): 3.111 (CPM × 1000)/ml
RT Activity (CPM × 1000)/ml (HIV-1 in H-9 cells [3]; 25 days in culture): 15.88 (CPM × 1000)/ml
RT Activity (CPM × 1000)/ml (HIV-1 in H-9 cells [3]; 29 days in culture): 32.08 (CPM × 1000)/ml
RT Activity (CPM × 1000)/ml (HIV-1 in H-9 cells [3]; 33 days in culture): 612.2 (CPM × 1000)/ml
RT Activity (CPM × 1000)/ml (HIV-1 in H-9 cells [3]; 37 days in culture): 878.2 (CPM × 1000)/ml
RT Activity (CPM × 1000)/ml (HIV-1 in H-9 cells [3]; 41 days in culture): 994.0 (CPM × 1000)/ml
RT Activity (CPM × 1000)/ml (HIV-1 in H-9 cells [3]; 45 days in culture): 32.91 (CPM × 1000)/ml
RT Activity (CPM × 1000)/ml (HIV-1 in MT-4 cells [4]; 3 days in culture): 1.564 (CPM × 1000)/ml
RT Activity (CPM × 1000)/ml (HIV-1 in MT-4 cells [4]; 6 days in culture): 1.748 (CPM × 1000)/ml
RT activity (cpm) after 8 days (HIV-1 in H-9 cells [1]; inhibitor 20 μM): 633 cpm and 587 cpm
RT activity (cpm) after 26 days (HIV-1 in H-9 cells [1]; inhibitor 20 μM): 821 cpm and 679 cpm
% Immunofluorescent Cells (P-24) (HIV-1 in MT-4 cells [5]; 3 days in culture): 1.0%
% Immunofluorescent Cells (P-24) (HIV-1 in MT-4 cells [5]; 6 days in culture): 1.0%
viability at 2 µg/mL (HIV-1 in MT-4 cells [2]; read-out: Cell Viability %, MT-4 cells, HIV-1, 6 days in culture, 2 μg/ml of compound): 88.6%
